Molecular target: Recombinant GMPPNP-loaded KRAS G12C (KRAS-G12C(ON)) / GST-RAF1 RBD (Homo sapiens, UniProt P01116, G12C)
Assay: KRAS G12C RAF Disruption Assay (HTRF)
Format: biochemical
Conditions: GMPPNP-loaded KRAS G12C 5 nM, compound 20 min at room temperature, GST-RAF1 RBD 9 nM, HTRF signal; read-out: KRASG12C RAF Disruption Assay (IC50)
Description: Recombinant GST-RAF1 RBD (9 nM) was added, and the reaction mixture was incubated for 20 minutes. SA-Tb (0.25 nM) was added, and the reaction mixture was incubated for 3 hours. HTRF signal was measured (PerkinElmer Envision), the signal ratio (λem 520/λem 495) was calculated, and IC50 values were calculated from the dose-response curve.

Sequence of Recombinant GMPPNP-loaded KRAS G12C (KRAS-G12C(ON)) / GST-RAF1 RBD (P01116 1-188 isoform P01116-2 G12C): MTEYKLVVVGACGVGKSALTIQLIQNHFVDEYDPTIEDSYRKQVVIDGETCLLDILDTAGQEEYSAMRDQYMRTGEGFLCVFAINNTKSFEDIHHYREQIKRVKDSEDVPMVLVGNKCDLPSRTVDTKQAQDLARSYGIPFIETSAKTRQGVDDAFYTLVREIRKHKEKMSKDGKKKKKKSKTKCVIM

Row | IC50 [nM] | Compound
1 | 57000 | CN1CCC[C@H]1COc1nc2c(c(N3CCN(C(=O)C(F)=Cc4ccns4)[C@@H](CC#N)C3)n1)CCN(c1cccc3cccc(Cl)c13)C2 (racemic) [Example 9, 2-((S)-4-(7-(8-chloronaphthalen-1-yl)-2-(((S)-1-methylpyrrolidin-2-yl)methoxy)-5,6,7,8-tetrahydropyrido[3,4-d]pyrimidin-4-yl)-1-(2-fluoro-3-(isothiazol-5-yl)acryloyl)piperazin-2-yl)acetonitrile]
2 | 89 | CN1CCC[C@H]1COc1nc2c(c(N3CCN(C(=O)/C(F)=C/c4ncco4)[C@@H](CC#N)C3)n1)CCN(c1cccc3cccc(Cl)c13)C2 [Example 6, 2-((S)-4-(7-(8-chloronaphthalen-1-yl)-2-(((S)-1-methylpyrrolidin-2-yl)methoxy)-5,6,7,8-tetrahydropyrido[3,4-d]pyrimidin-4-yl)-1-((Z)-2-fluoro-3-(oxazol-2-yl)acryloyl)piperazin-2-yl)acetonitrile]
3 | 24000 | CN1CCC[C@H]1COc1nc2c(c(N3CCN(C(=O)/C(F)=C/c4nccn4C)[C@@H](CC#N)C3)n1)CCN(c1cccc3cccc(Cl)c13)C2 [Example 10, 2-((S)-4-(7-(8-chloronaphthalen-1-yl)-2-(((S)-1-methylpyrrolidin-2-yl)methoxy)-5,6,7,8-tetrahydropyrido[3,4-d]pyrimidin-4-yl)-1-((Z)-2-fluoro-3-(1-methyl-1H-imidazol-2-yl)acryloyl)piperazin-2-yl)acetonitrile]
4 | 778 | Cc1cccnc1/C=C(\F)C(=O)N1CCN(c2nc(OC[C@@H]3CCCN3C)nc3c2CCN(c2cccc4cccc(Cl)c24)C3)C[C@@H]1CC#N [Example 14, 2-((S)-4-(7-(8-chloronaphthalen-1-yl)-2-(((S)-1-methylpyrrolidin-2-yl)methoxy)-5,6,7,8-tetrahydropyrido[3,4-d]pyrimidin-4-yl)-1-((Z)-2-fluoro-3-(3-methylpyridin-2-yl)acryloyl)piperazin-2-yl)acetonitrile]
5 | 63700 | CN1CCC[C@H]1COc1nc2c(c(N3CCN(C(=O)/C(F)=C/c4ccon4)[C@@H](CC#N)C3)n1)CCN(c1cccc3cccc(Cl)c13)C2 [Example 16, 2-((S)-4-(7-(8-chloronaphthalen-1-yl)-2-(((S)-1-methylpyrrolidin-2-yl)methoxy)-5,6,7,8-tetrahydropyrido[3,4-d]pyrimidin-4-yl)-1-((Z)-2-fluoro-3-(isoxazol-3-yl)acryloyl)piperazin-2-yl)acetonitrile]
6 | 10500 | CN1CCC[C@H]1COc1nc2c(c(N3CCN(C(=O)/C(F)=C/c4ccno4)[C@@H](CC#N)C3)n1)CCN(c1cccc3cccc(Cl)c13)C2 [Example 17]
7 | 92600 | CN1CCC[C@H]1COc1nc2c(c(N3CCN(C(=O)/C(F)=C/c4cn(C)nn4)[C@@H](CC#N)C3)n1)CCN(c1cccc3cccc(Cl)c13)C2 [Example 18]

Continued, compound first:

Row | Compound | IC50 [nM]
8 | CN1CCC[C@H]1COc1nc2c(c(N3CCN(C(=O)/C(F)=C/c4cccnc4)[C@@H](CC#N)C3)n1)CCN(c1cccc3cccc(Cl)c13)C2 [Example 2, 2-((S)-4-(7-(8-chloronaphthalen-1-yl)-2-(((S)-1-methylpyrrolidin-2-yl)methoxy)-5,6,7,8-tetrahydropyrido[3,4-d]pyrimidin-4-yl)-1-((Z)-2-fluoro-3-(pyridin-3-yl)acryloyl)piperazin-2-yl)acetonitrile] | 40300
9 | CN1CCC[C@H]1COc1nc2c(c(N3CCN(C(=O)/C(F)=C/c4ccncc4)[C@@H](CC#N)C3)n1)CCN(c1cccc3cccc(Cl)c13)C2 [Example 3, 2-((S)-4-(7-(8-chloronaphthalen-1-yl)-2-(((S)-1-methylpyrrolidin-2-yl)methoxy)-5,6,7,8-tetrahydropyrido[3,4-d]pyrimidin-4-yl)-1-((Z)-2-fluoro-3-(pyridin-4-yl)acryloyl)piperazin-2-yl)acetonitrile] | 329
10 | CN1CCC[C@H]1COc1nc2c(c(N3CCN(C(=O)/C(F)=C/c4ncccn4)[C@@H](CC#N)C3)n1)CCN(c1cccc3cccc(Cl)c13)C2 [Example 4, 2-((S)-4-(7-(8-chloronaphthalen-1-yl)-2-(((S)-1-methylpyrrolidin-2-yl)methoxy)-5,6,7,8-tetrahydropyrido[3,4-d]pyrimidin-4-yl)-1-((Z)-2-fluoro-3-(pyrimidin-2-yl)acryloyl)piperazin-2-yl)acetonitrile] | 103
11 | N#CC[C@H]1CN(c2nc(OC[C@@]34CCCN3C[C@H](F)C4)nc3c2CCN(c2cccc4cccc(Cl)c24)C3)CCN1C(=O)/C(F)=C/c1ccccn1 [Example 7, 2-((S)-4-(7-(8-chloronaphthalen-1-yl)-2 (((2R,7aS)-2-fluorotetrahydro-1H-pyrrolizin-7a(5H)-yl)methoxy)-5,6,7,8-tetrahydropyrido[3,4-d]pyrimidin-4-yl)-1-((Z)-2-fluoro-3-(pyridin-2-yl)acryloyl)piperazin-2-yl)acetonitrile] | 74
12 | N#CC[C@H]1CN(c2nc(OC[C@@]34CCCN3C[C@H](F)C4)nc3c2CCN(c2cccc4cccc(Cl)c24)C3)CCN1C(=O)/C(F)=C/c1nccs1 [Example 8, 2-((S)-4-(7-(8-chloronaphthalen-1-yl)-2 (((2R,7aS)-2-fluorotetrahydro-1H-pyrrolizin-7a(5H)-yl)methoxy)-5,6,7,8-tetrahydropyrido[3,4-d]pyrimidin-4-yl)-1-((Z)-2-fluoro-3-(thiazol-2-yl)acryloyl)piperazin-2-yl)acetonitrile] | 55
13 | Cc1cccc(/C=C(\F)C(=O)N2CCN(c3nc(OC[C@@H]4CCCN4C)nc4c3CCN(c3cccc5cccc(Cl)c35)C4)C[C@@H]2CC#N)n1 [Example 11, 2-((S)-4-(7-(8-chloronaphthalen-1-yl)-2-(((S)-1-methylpyrrolidin-2-yl)methoxy)-5,6,7,8-tetrahydropyrido[3,4-d]pyrimidin-4-yl)-1-((Z)-2-fluoro-3-(6-methylpyridin-2-yl)acryloyl)piperazin-2-yl)acetonitrile] | 144
14 | Cc1ccnc(/C=C(\F)C(=O)N2CCN(c3nc(OC[C@@H]4CCCN4C)nc4c3CCN(c3cccc5cccc(Cl)c35)C4)C[C@@H]2CC#N)c1 [Example 12, 2-((S)-4-(7-(8-chloronaphthalen-1-yl)-2-(((S)-1-methylpyrrolidin-2-yl)methoxy)-5,6,7,8-tetrahydropyrido[3,4-d]pyrimidin-4-yl)-1-((Z)-2-fluoro-3-(4-methylpyridin-2-yl)acryloyl)piperazin-2-yl)acetonitrile] | 129
15 | Cc1ccc(/C=C(\F)C(=O)N2CCN(c3nc(OC[C@@H]4CCCN4C)nc4c3CCN(c3cccc5cccc(Cl)c35)C4)C[C@@H]2CC#N)nc1 [Example 13, 2-((S)-4-(7-(8-chloronaphthalen-1-yl)-2-(((S)-1-methylpyrrolidin-2-yl)methoxy)-5,6,7,8-tetrahydropyrido[3,4-d]pyrimidin-4-yl)-1-((Z)-2-fluoro-3-(5-methylpyridin-2-yl)acryloyl)piperazin-2-yl)acetonitrile] | 192
16 | C[C@H]1CN(C(=O)/C(F)=C/c2nccs2)CCN1c1nc(OC[C@@H]2CCCN2C)nc2c1CCN(c1cccc3cccc(Cl)c13)C2 [Example 15, (Z)-1-((S)-4-(7-(8-chloronaphthalen-1-yl)-2-(((S)-1-methylpyrrolidin-2-yl)methoxy)-5,6,7,8-tetrahydropyrido[3,4-d]pyrimidin-4-yl)-3-methylpiperazin-1-yl)-2-fluoro-3-(thiazol-2-yl)prop-2-en-1-one] | 7500
